Holding throughout (assay): NCI anticancer screen, dose series, 48 h
The subject of assay [1] is SK-MEL-5.
Assay [2] has as its system UO-31.
Assay [3] concerns PC-3.
The test system of assay [4] is OVCAR-4.
For assay [5], the system named is ACHN.
Assay [6] concerns KM12.
In assay [7] the test system is NCI-H460.
Assay [8] has as its system HCT-15.
Assay [9] concerns U-251.
Assay [10] has as its system MCF7.
Assay [11] has as its system SW-620.
For assay [12], the system named is NCI-H23.
In assay [13] the test system is COLO 205.
Assay [14] has as its system MDA-N.
The subject of assay [15] is Hs-578T.
Assay [16] relates to MDA-MB-435.
The subject of assay [17] is NCI-H522.
Assay [18] deals with DU-145.
In assay [19] the test system is HCT-116.
Assay [20] concerns IGROV-1.

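Where inhibition never reached the appropriate level, the endpoint shown equals the highest concentration tested. Otherwise, values were interpolated linearly from a five-concentration, 48-hour dose response in 96-well plates. The concentration for 50% growth inhibition is given as GI50.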 The source made the active and inactive calls. No stated cut-off is given here; in the data, active = GI50 up to about 1.1 µM and inactive = higher.

As for `COc1cc(/C=C/C(=O)N[C@@H]2C(=O)N3[C@@H]2SC(C)(C)[C@@H]3C(=O)O)ccc1O`, the GI50 in assay [1], in assay [2], in assay [3], in [4], in assay [5] and in assay [6] was > 100 µM (inactive) in each case. For the same compound, the GI50 in assay [7] is > 100 µM (inactive); in [8], over 100 µM; in [9], > 100 µM (inactive); in assay [10] it was > 100 µM (inactive); in assay [11], > 100 µM (inactive); in assay [12], > 100 µM (inactive). Further, the GI50 in assay [13], in [14], in assay [15], in assay [16], in [17] and in assay [18] was > 100 µM (inactive) each time. Besides, in assay [19], the GI50 is > 100 µM (inactive).
`O=C1C=CC(=O)c2ccc(=O)ccc21`: the GI50 in assay [1] is 19.7 µM (inactive); in assay [2], 15 µM (inactive); in assay [3], 17.8 µM (inactive); in [20] it was 18.8 µM (inactive); in assay [4], 9.29 µM (inactive); in assay [5] it was 9.68 µM (inactive). The GI50 is 19.1 µM (inactive) in assay [6]; 21.2 µM (inactive) in assay [7]; 17 µM in assay [8]; 16.4 µM (inactive) in assay [9]; 28.8 µM (inactive) in assay [10]; 3.74 µM (inactive) in [11]. Also, the GI50 in assay [12] is 19.1 µM (inactive); in [13] it was 5.01 µM (inactive); in assay [14], 13.3 µM (inactive); in assay [15], 36.6 µM (inactive); in [16] it was 21.5 µM (inactive); in [17], 2.09 µM (inactive). In addition, the GI50 was 28.1 µM (inactive) in assay [18] and 10.8 µM (inactive) in [19].
Consider `NC(=O)CC(N)C(N)=O` (stereo not given), for which the GI50 in [1], in assay [3], in [20], in assay [4], in assay [5] and in assay [6] was > 100 µM (inactive) each time. Further, the GI50 was > 100 µM (inactive) in assay [7]; over 100 µM in assay [8]; > 100 µM (inactive) in assay [9]; > 100 µM (inactive) in [10]; > 100 µM (inactive) in assay [11]; > 100 µM (inactive) in assay [12]. Besides, the GI50 in [13], in [14], in assay [15], in assay [16], in assay [17] and in assay [18] was > 100 µM (inactive) each time. Besides, the GI50 in assay [19] is > 100 µM (inactive).
In the case of `COc1cccc(C2c3cc4c(cc3OC(N3CCCCC3)C2C)OCO4)c1OC` (stereo not given), the GI50 was 6.47 µM (inactive) in assay [1]; 7.05 µM (inactive) in assay [2]; 5.58 µM (inactive) in assay [3]; 5.16 µM (inactive) in [20]; 3.19 µM (inactive) in assay [5]; 6.32 µM (inactive) in assay [6]. The GI50 in assay [7] was 4.46 µM (inactive); in [8] it was 3.37 µM; in assay [9] it was 4.58 µM (inactive); in assay [10], 5.71 µM (inactive); in assay [11], 3.93 µM (inactive); in [12] it was 14.3 µM (inactive). Besides, the GI50 is 7.64 µM (inactive) in assay [13]; 11.2 µM (inactive) in assay [14]; 4.31 µM (inactive) in assay [15]; 11.3 µM (inactive) in assay [16]; 5.21 µM (inactive) in assay [17]; 3.64 µM (inactive) in assay [18]. Besides, the GI50 in [19] is 2.72 µM (inactive).
As for `N#C[BH2-][n+]1ccc(C(=O)NNCc2ccc(F)cc2)cc1`, the GI50 in assay [1] is > 100 µM (inactive); in assay [2], 59.7 µM (inactive); in [3], > 100 µM (inactive); in assay [20] it was > 100 µM (inactive); in [4], 64.1 µM (inactive); in [5], > 100 µM (inactive). For the same compound, the GI50 in assay [6] was > 100 µM (inactive); in assay [7] it was > 100 µM (inactive); in assay [8] it was over 100 µM; in assay [9] it was > 100 µM (inactive); in [10], > 100 µM (inactive); in assay [11], > 100 µM (inactive). Moreover, the GI50 in assay [13], in assay [14], in assay [15], in assay [16], in [17] and in assay [18] was > 100 µM (inactive) throughout. Also, in assay [19], the GI50 was > 100 µM (inactive).
In the case of `COc1cccc2cc(C(C)=O)c(=O)oc12`, the GI50 in [1], in assay [2], in assay [3], in assay [20], in assay [4] and in assay [5] was > 100 µM (inactive) in each case. The GI50 in [6], in assay [7], in assay [9], in assay [10], in assay [11] and in assay [12] was > 100 µM (inactive) throughout. Further, the GI50 in assay [13], in assay [14], in [15], in assay [16], in assay [17] and in assay [18] was > 100 µM (inactive) in each case. In [19], the GI50 is > 100 µM (inactive).
Regarding `COc1ccc(NC(=O)CSc2nc(C)nc3c2sc(=S)n3-c2ccccc2)cc1`, the GI50 was > 10 µM (inactive) in assay [1]; > 10 µM (inactive) in assay [3]; > 10 µM (inactive) in assay [20]; 3.18 µM (inactive) in assay [4]; 4.68 µM (inactive) in [5]; > 10 µM (inactive) in assay [6]. Further, the GI50 was 3.73 µM (inactive) in [7]; over 10 µM in [8]; > 10 µM (inactive) in [9]; 8.11 µM (inactive) in assay [10]; > 10 µM (inactive) in assay [11]; > 10 µM (inactive) in assay [12]. The GI50 in assay [13] is 7.28 µM (inactive); in assay [14] it was > 10 µM (inactive); in assay [15] it was 3.75 µM (inactive); in assay [16], 7.91 µM (inactive); in [17], > 10 µM (inactive); in assay [18] it was > 10 µM (inactive). Moreover, the GI50 in assay [19] was 8.28 µM (inactive).
Turning to `O=C1COc2ccc([N+](=O)[O-])cc2C(=O)C1`, the GI50 in assay [1], in [2], in assay [3], in [20], in [4] and in assay [5] was > 10 µM (inactive) each time. Besides, the GI50 in [6] is > 10 µM (inactive); in assay [7], > 10 µM (inactive); in [8], over 10 µM; in assay [9], > 10 µM (inactive); in assay [10] it was > 10 µM (inactive); in assay [11], > 10 µM (inactive). The GI50 in assay [12], in assay [13], in assay [14], in [15], in assay [16] and in assay [18] was > 10 µM (inactive) each time. Moreover, the GI50 in assay [19] is > 10 µM (inactive).
Turning to `C[C@H]1CCC2C(OC(=O)[C@@H]2CN(C)C)[C@]2(C)C(=O)C=CC12O` (stereo not given in full), the GI50 in assay [1] was 7.16 µM (inactive); in [2], 10.9 µM (inactive); in assay [3] it was 14.2 µM (inactive); in assay [20], 15.8 µM (inactive); in [4], 5.62 µM (inactive); in [5], 2.17 µM (inactive). Further, the GI50 in [6] is 4.69 µM (inactive); in [7] it was 12.5 µM (inactive); in assay [9], 17.5 µM (inactive); in assay [10], 7.5 µM (inactive); in assay [11], 3.24 µM (inactive); in [12], 3.26 µM (inactive). The GI50 is 4.74 µM (inactive) in assay [13]; 3.48 µM (inactive) in [14]; 4.27 µM (inactive) in assay [15]; 4.47 µM (inactive) in [16]; 1.32 µM (inactive) in [17]; 10.8 µM (inactive) in assay [18]. In addition, in [19], the GI50 was 2.86 µM (inactive).
For the compound `COC(=O)c1c(O)ccc2c1c1c(n2CCc2ccc(OC)c(OC)c2)C(=O)c2ccccc2C1=O`, the GI50 in [1] is 11.4 µM (inactive); in assay [2] it was 13.7 µM (inactive); in assay [3], 14.9 µM (inactive); in assay [20], 14.6 µM (inactive); in assay [4] it was 13.7 µM (inactive); in assay [5], 18.2 µM (inactive). Besides, the GI50 in assay [6] is 13 µM (inactive); in assay [7] it was 5.01 µM (inactive); in [8], 12.7 µM; in assay [9], 18.4 µM (inactive); in [10], 17.9 µM (inactive); in [12] it was 15.6 µM (inactive). Also, the GI50 was 3.57 µM (inactive) in assay [13]; 10.9 µM (inactive) in [14]; 10.9 µM (inactive) in [15]; 14 µM (inactive) in assay [16]; 2.69 µM (inactive) in assay [17]; 15.6 µM (inactive) in assay [18]. Besides, in assay [19], the GI50 is 12.7 µM (inactive).
For the compound `Oc1ccccc1C(c1cc2c(cc1O)OCO2)N1CCOCC1` (stereo not given), the GI50 is 17.3 µM (inactive) in assay [1]; 15.8 µM (inactive) in [2]; 16.3 µM (inactive) in [3]; 19.4 µM (inactive) in assay [20]; 17.5 µM (inactive) in assay [5]; 19.8 µM (inactive) in assay [6]. Further, the GI50 in assay [7] is 27.4 µM (inactive); in assay [8], 16.4 µM; in assay [9] it was 16.6 µM (inactive); in [10], 19.4 µM (inactive); in [11] it was 23 µM (inactive); in [12] it was 23.6 µM (inactive). Besides, the GI50 was 18.7 µM (inactive) in assay [13]; 18.7 µM (inactive) in assay [14]; 19.5 µM (inactive) in [15]; 18.2 µM (inactive) in assay [16]; 10.2 µM (inactive) in assay [17]; 37.4 µM (inactive) in [18]. In assay [19], the GI50 was 17.7 µM (inactive).

These data come from ChEMBL document CHEMBL1201862, “PubChem BioAssay data set” (2004).
